In US6545006B1, “Process for obtaining L-dihydroorotic acid and use thereof” (Aventis Pharma Deutschland GmbH, priority 1997, dated 2003):

Assays:
[1] = A77 1726 concentrations in serum from rats treated with leflunomide; format: in vivo, rat; settings: for A77 1726 concentrations in serum, Mean: leflunomide 10 mg/kg p.o. twice daily; for A77 1726 serum concentration: 3 hours after oral drug administration
Experimental: Animals: Male Wistar-Lewis rats (Mollegaard Breading Center Ltd. Ejby, DK) with a body weight of 160-200 g.
Adjuvant Arthritis: The disease was induced by injecting 0.1 ml Freund's adjuvant (6 mg Mycobacterium smegmatis suspended in 1 ml heavy, white paraffin oil (Merck, Darmstadt) into the root of Wistar-Lewis rat's tails. Pathological symptoms generally appear between 10 and 14 days after disease induction.
Drug Treatment: Drugs were suspended in 1% carboxymethylcellulose (COMC). […] (see table 12). At time point 0 h, 3 animals from both diseased and non-diseased groups were sacrificed to determine base-line levels. An additional 3 healthy and 3 diseased animals were treated with placebo (COMC alone) for 5 days.
Sampling: Three animals per group were sacrificed at each sampling time point. Serum and splenocytes taken at 3 h, 7 h, 27 h, 51 h, 75 h, and 99 h (see table 12). With the exception of the 7 h value, samples were taken three hours after the last drug application. The 7 h value was taken one hour after the second dosing. Samples from the placebo treated animals were taken at the 0 h (n=3) and 99 h (n=3) time points
Blood collected by heart puncture was stored for 30 min at 4° C. and then centrifuged for 10 min at 3000 rpm. Serum was separated and stored in Eppendorf-caps at −20° C. (3). Before HPLC analysis, the frozen serum was thawed and, in order to remove the proteins, 200 μl serum were added to a Microcon filter (model 10,code 42407, Amicon) and centrifuged for 30 min at 13 000 rpm.
The tubes were then mixed in a Vortex mixer and centrifuged at 2500 rpm (room temperature) for 10 minutes. For HPLC analysis, the supernatant (400 μl) was transferred to a vial and water (400 μl) added and mixed. The HPLC conditions were as follows: The hardware consisted of a TSP P2000 pump, a TSP AS1000 auto-sampler, a TSP SP4270 integrator, and a TSP UV100 UV-detector. Detection was at 292 nm wavelength. The mobile phase consisted of 650 ml methanol (CHROMASOLV), 2,42 g tetrabutylammoniumbromide, and 350 ml 0,05 M Ammoniumacetate. The flow rate was 0.5 ml/min A CHROMPACK Spherisorb ODS-2 10 cm column with a 1 cm reversed phase (R2) guard column was used. 100 μl was injected into the column and the running time was 7 min.

DHO-DH = molecular target: T1, DHO-DH (Mus musculus, UniProt O35435); assay: Intracellular DHO-concentrations in A20.2.J cells incubated with A77 1726; format: cell-based; settings: for DHO-Concentration (μg/ml ± SD) Experiment 1 (E10 B) / DHO-Concentration (μg/ml ± SD) Experiment 2 (E14): 5 μM A77 1726, 24 hours, n=3
T1 construct: endogenous in cells; host or cells: A20.2.J cells
T1 sequence (O35435 whole entry): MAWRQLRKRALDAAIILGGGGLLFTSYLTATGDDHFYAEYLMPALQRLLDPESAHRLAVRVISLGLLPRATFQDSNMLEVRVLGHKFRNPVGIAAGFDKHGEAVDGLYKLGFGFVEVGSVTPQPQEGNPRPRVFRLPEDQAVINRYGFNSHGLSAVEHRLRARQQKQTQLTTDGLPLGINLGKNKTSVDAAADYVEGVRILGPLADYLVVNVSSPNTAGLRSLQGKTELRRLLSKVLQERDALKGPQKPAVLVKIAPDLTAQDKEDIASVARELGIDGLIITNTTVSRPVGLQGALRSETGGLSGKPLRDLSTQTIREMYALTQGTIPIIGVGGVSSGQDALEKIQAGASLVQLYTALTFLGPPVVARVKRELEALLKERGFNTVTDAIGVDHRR
Experimental: Cell Culture: A20.2.J cells were cultured in serum free medium (37° C., 5% CO2) in an expansion culture at logarithmic cell growth. […] The percentage of dead cells were <8% (3).
Prepared cells were resuspended in a defined medium volume and cell density. Depending on expected DHO content, between 1-50 million cells were removed, pelleted (5 min, 350×g) and supernatant discarded. Cell were lysed, by adding 500 μl 1.2 M HCIO4. The lysates were transferred into 2 ml Eppendorf safe-lock-caps, and the protein precipitated by 2 min high speed centrifugation. The acidified lysates were completely removed, transferred into glass vials and, after addition of 500 μl chloroform, thoroughly mixed by 2 min vortexing. Cellular lipids were extracted following 10 min cold centrifugation (1502×g; 10° C.). The purified supernatants were collected in 2 ml Eppendorf caps for storage at −20° C. until high pressure liquid chromatography (HPLC) determination.
The chromatographic separation was performed as described in example 1.The range of the conductive detector was set to 10 μS. The analysis was performed at room temperature. The mobile phase was composed of 100 mM NaOH (A) and water (B). With that system the following gradient was produced:
(* all values extrapolated to 10×10^6 cells) (n=2).
The data are given as μg/ml DHO±SD extrapolated to ten million cells (0-4 h=n=2, 7 h=n=4).

## CC(O)=C(C#N)C(=O)Nc1ccc(C(F)(F)F)cc1 [A77 1726, N-(4-trifluoromethyl)-2-cyano-3-hydroxy-crotonamide]
[1]; Adjuvant Diseased Rats, 3 h
  A77 1726 concentrations in serum, Mean: 26.33 µg/mL
[1]; Adjuvant Diseased Rats, 7 h
  A77 1726 concentrations in serum, Mean: 42.3 µg/mL
[1]; Adjuvant Diseased Rats, 27 h
  A77 1726 concentrations in serum, Mean: 19.7 µg/mL
[1]; Adjuvant Diseased Rats, 51 h
  A77 1726 concentrations in serum, Mean: 9.2 µg/mL
[1]; Adjuvant Diseased Rats, 75 h
  A77 1726 concentrations in serum, Mean: 9.9 µg/mL
[1]; Adjuvant Diseased Rats, 99 h
  A77 1726 concentrations in serum, Mean: 12.2 µg/mL
[1]; Non-Diseased Rats, 3 h
  A77 1726 concentrations in serum, Mean: 30.7 µg/mL
[1]; Non-Diseased Rats, 7 h
  A77 1726 concentrations in serum, Mean: 47.9 µg/mL
[1]; Non-Diseased Rats, 27 h
  A77 1726 concentrations in serum, Mean: 9.6 µg/mL
[1]; Non-Diseased Rats, 51 h
  A77 1726 concentrations in serum, Mean: 7400 µg/mL
[1]; Non-Diseased Rats, 99 h
  A77 1726 concentrations in serum, Mean: 12.7 µg/mL
[1]; adjuvant diseased rats
  A77 1726 serum concentration: about 26 μg/ml
[1]; diseased animals
  time to reach the 7 to 12 μg/ml A77 1726 serum concentrations: 51 h
[1]; non-diseased rats
  time to reach the 7 to 12 μg/ml A77 1726 serum concentrations: 27 h
  A77 1726 serum concentration: ~31 µg/mL
[1]; one hour after the second dosing
  time of peak A77 1726 serum concentration: 7 h
DHO-DH; 1 ×10^6 cells extracted
  DHO-Concentration (μg/ml ± SD) Experiment 1 (E10 B): 14.08 ± 2.40 µg/mL
  DHO-Concentration (μg/ml ± SD) Experiment 2 (E14): 11.75 ± 0.23 µg/mL
DHO-DH; 1 × 10^6 cells/ml, 1 h, 5 μM A77 1726, extrapolated to 10×10^6 cells, n=2
  Concentration DHO (μg/ml) mean ± SD: 6.25 ± 0.42 µg/mL
DHO-DH; 1 × 10^6 cells/ml, 4 h, 5 μM A77 1726, extrapolated to 10×10^6 cells, n=2
  Concentration DHO (μg/ml) mean ± SD: 33.06 ± 2.26 µg/mL
DHO-DH; 1 × 10^6 cells/ml, 7 h, 5 μM A77 1726, extrapolated to 10×10^6 cells, n=2
  Concentration DHO (μg/ml) mean ± SD: 60.07 ± 0.01 µg/mL
DHO-DH; 1×10^6 cells/ml, independent of the drug concentration
  incubation time after which detectable amounts of DHO could be determined: 1 h
DHO-DH; 1×10^6 cells/ml, saturation afterwards
  incubation time with the greatest amount of DHO determined: 6 h
DHO-DH; 2 ×10^6 cells extracted
  DHO-Concentration (μg/ml ± SD) Experiment 1 (E10 B): 19.51 ± 6.47 µg/mL
  DHO-Concentration (μg/ml ± SD) Experiment 2 (E14): 28.27 ± 0.79 µg/mL
DHO-DH; 2 × 10^6 cells/ml, 1 h, 5 μM A77 1726, extrapolated to 10×10^6 cells, n=2
  Concentration DHO (μg/ml) mean ± SD: 5.47 ± 0.10 µg/mL
DHO-DH; 2 × 10^6 cells/ml, 4 h, 5 μM A77 1726, extrapolated to 10×10^6 cells, n=2
  Concentration DHO (μg/ml) mean ± SD: 26.36 ± 0.42 µg/mL
DHO-DH; 2 × 10^6 cells/ml, 7 h, 5 μM A77 1726, extrapolated to 10×10^6 cells, n=2
  Concentration DHO (μg/ml) mean ± SD: 42.31 ± 1.07 µg/mL
DHO-DH; 3 × 10^6 cells/ml, 1 h, 5 μM A77 1726, extrapolated to 10×10^6 cells, n=2
  Concentration DHO (μg/ml) mean ± SD: 5.63 ± 0.19 µg/mL
DHO-DH; 3 × 10^6 cells/ml, 4 h, 5 μM A77 1726, extrapolated to 10×10^6 cells, n=2
  Concentration DHO (μg/ml) mean ± SD: 19.39 ± 1.87 µg/mL
DHO-DH; 3 × 10^6 cells/ml, 7 h, 5 μM A77 1726, extrapolated to 10×10^6 cells, n=2
  Concentration DHO (μg/ml) mean ± SD: 28.79 ± 0.34 µg/mL
DHO-DH; 4 ×10^6 cells extracted
  DHO-Concentration (μg/ml ± SD) Experiment 1 (E10 B): 53.58 ± 3.50 µg/mL
  DHO-Concentration (μg/ml ± SD) Experiment 2 (E14): 57.20 ± 2.76 µg/mL
DHO-DH; 6 ×10^6 cells extracted
  DHO-Concentration (μg/ml ± SD) Experiment 1 (E10 B): 73.01 ± 1.49 µg/mL
  DHO-Concentration (μg/ml ± SD) Experiment 2 (E14): 85.38 ± 2.33 µg/mL
DHO-DH; 8 ×10^6 cells extracted
  DHO-Concentration (μg/ml ± SD) Experiment 1 (E10 B): 99.89 ± 5.96 µg/mL
  DHO-Concentration (μg/ml ± SD) Experiment 2 (E14): 107.02 ± 3.47 µg/mL
DHO-DH; 10 ×10^6 cells extracted
  DHO-Concentration (μg/ml ± SD) Experiment 1 (E10 B): 113.37 ± 4.24 µg/mL
  DHO-Concentration (μg/ml ± SD) Experiment 2 (E14): 128.73 ± 1.95 µg/mL
DHO-DH; A77 1726 5 μM, 0 h, one million cells/ml, extrapolated to ten million cells
  Concentration DHO (μg/ml) mean ± SD: 2.73 ± 0.10 µg/mL
DHO-DH; A77 1726 5 μM, 1 h, one million cells/ml, extrapolated to ten million cells
  Concentration DHO (μg/ml) mean ± SD: 9.20 ± 0.09 µg/mL
DHO-DH; A77 1726 5 μM, 2 h, one million cells/ml, extrapolated to ten million cells
  Concentration DHO (μg/ml) mean ± SD: 24.03 ± 1.15 µg/mL
DHO-DH; A77 1726 5 μM, 4 h, one million cells/ml, extrapolated to ten million cells
  Concentration DHO (μg/ml) mean ± SD: 59.48 ± 0.72 µg/mL
DHO-DH; A77 1726 5 μM, 7 h, one million cells/ml, extrapolated to ten million cells
  Concentration DHO (μg/ml) mean ± SD: 87.54 ± 1.58 µg/mL
DHO-DH; A77 1726 10 μM, 0 h, one million cells/ml, extrapolated to ten million cells
  Concentration DHO (μg/ml) mean ± SD: 2.73 ± 0.10 µg/mL
DHO-DH; A77 1726 10 μM, 1 h, one million cells/ml, extrapolated to ten million cells
  Concentration DHO (μg/ml) mean ± SD: 8.5 ± 0.39 µg/mL
DHO-DH; A77 1726 10 μM, 2 h, one million cells/ml, extrapolated to ten million cells
  Concentration DHO (μg/ml) mean ± SD: 20.74 ± 1.43 µg/mL
DHO-DH; A77 1726 10 μM, 4 h, one million cells/ml, extrapolated to ten million cells
  Concentration DHO (μg/ml) mean ± SD: 58.65 ± 2.06 µg/mL
DHO-DH; A77 1726 10 μM, 7 h, one million cells/ml, extrapolated to ten million cells
  Concentration DHO (μg/ml) mean ± SD: 82.65 ± 4.50 µg/mL
DHO-DH; A77 1726 25 μM, 0 h, one million cells/ml, extrapolated to ten million cells
  Concentration DHO (μg/ml) mean ± SD: 2.73 ± 0.08 µg/mL
DHO-DH; A77 1726 25 μM, 1 h, one million cells/ml, extrapolated to ten million cells
  Concentration DHO (μg/ml) mean ± SD: 15.05 ± 0.26 µg/mL
DHO-DH; A77 1726 25 μM, 2 h, one million cells/ml, extrapolated to ten million cells
  Concentration DHO (μg/ml) mean ± SD: 26.06 ± 0.20 µg/mL
DHO-DH; A77 1726 25 μM, 4 h, one million cells/ml, extrapolated to ten million cells
  Concentration DHO (μg/ml) mean ± SD: 50.21 ± 1.54 µg/mL
DHO-DH; A77 1726 25 μM, 7 h, one million cells/ml, extrapolated to ten million cells
  Concentration DHO (μg/ml) mean ± SD: 114.89 ± 3.61 µg/mL
DHO-DH; incubation with A77 1726
  accumulation of L-DHO in A20.2.J tumor cells: rapid accumulation of L-DHO
